Measured values: PMC11784839, “Monoaminergic neurotransmitters are bimodal effectors of tau aggregation” (Science Advances, 2025)

Target: tau (Homo sapiens, UniProt P10636)
Experiment: MCE Phenols Library screening, tau biosensor cell seeding assay (AvZ)
Type: cell-based
Settings: for Z repl 1 / Z Repl 2: Z score; for Z repl 1 / raw data 1: replicate 1; for Z Repl 2 / raw data 2: replicate 2; for AvZ (average z score of seeding, SDs from the mean level of seeding): 10 μM phenol in cell cultures, AD brain homogenate preincubated 16 hours, two biological replicates, positive = catalyzes seeding, negative = inhibits
[1] = average Z score of the two replicates, MCE Phenols Library screen
[2] = average puncta of the two replicates
[3] = average Z score of the two replicates, tau seeding
[4] = average Z score of the two replicates, tau biosensor seeding, MCE Phenols Library screen
[5] = average Z score of two replicates, Phenols Library screen

Sequence of tau (P10636 623-695 limits assumed): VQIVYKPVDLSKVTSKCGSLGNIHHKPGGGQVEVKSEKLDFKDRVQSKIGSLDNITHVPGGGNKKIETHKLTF

Compound	Z repl 1	Z Repl 2	av Z [1]	av puncta [2]	raw data 1 (raw puncta)	raw data 2 (raw puncta)	AvZ (average z score of seeding, SDs from the mean level of seeding)	av Z [3]	av puncta (average of raw data 1 and 2)	raw data 1 (puncta)	raw data 2 (puncta)	av Z [5]	av Z [4]	AvZ (average z score of seeding, SDs from the mean level of seeding) (listed as sinapine)
COc1cc(CNC(=O)CCCC/C=C/C(C)C)ccc1O [Capsaicin, reference compound]	0.025	-0.661		16179.6	26653.4	5705.75	-0.318							
CC(C)=CCc1c(O)cc2c(c1O)C(=O)C[C@@H](c1ccc(O)cc1)O2 [(2S)-6-Prenylnaringenin]	0.006	0.268						0.137	21024	26415.8	15632.3			
COc1cc(O)c2c(=O)c(O[C@@H]3O[C@H](CO)[C@@H](O)[C@H](O)[C@H]3O)c(-c3ccc(O[C@@H]4O[C@H](CO)[C@@H](O)[C@H](O)[C@H]4O)cc3)oc2c1 [Complanatuside]	-0.533	-0.238	-0.385	15089	19953.5	10224.5								
O=c1cc(-c2ccc(O)cc2)oc2cccc(O)c12 [4',5-Dihydroxyflavone]	0.443	0.397						0.42	24336.3	31664.4	17008.3			
C[C@@H]1O[C@@H](Oc2c(-c3ccc(O)c(O)c3)oc3cc(O)cc(O)c3c2=O)[C@H](O)[C@H](O)[C@H]1O [Quercitrin]	-0.089	-0.329	-0.209	17263.5	25279.8	9247.27								
COc1cc2ccc(=O)oc2c(O)c1OC [Fraxidin]	0.561	-0.256						0.152	21554.2	33079.8	10028.5			
O=C(/C=C/c1ccc(O)c(O)c1)N[C@@H](Cc1ccc(O)c(O)c1)C(=O)O [Clovamide]	-0.17	-1.084	-0.627	12750.8						24311.1	1190.55			
O=C(CCc1ccc(O)cc1)c1c(O)cc(O)cc1O [Phloretin]	-0.858	-0.477	-0.667	11860.9						16053.8	7668.02			
COc1cc(-c2oc3cc(OC)c(OC)c(O)c3c(=O)c2OC)ccc1O [Chrysosplenetin]	0.088	-0.899	-0.406	15282.9	27400	3165.82								
Oc1ccc(O)c(O)c1 [1,2,4-Trihydroxybenzene]	-1.617	-1.152					-1.385		3698	6931.48	464.513			
OCCc1ccc(O)c(O)c1 [Hydroxytyrosol]	-0.11	-0.571		15851.9	25031.1	6672.58	-0.34							
CC(=O)O[C@H](CC=C(C)C)C1=CC(=O)c2c(O)ccc(O)c2C1=O [Acetylshikonin]	0.563	1.037							28473.3	33102.4	23844.2		0.8	
O=C1c2cc(CO)cc(O)c2C(=O)c2c(O[C@@H]3O[C@H](CO)[C@@H](O)[C@H](O)[C@H]3O)cccc21 [Aloe-emodin-8-O-?-D-glucopyranoside]	-0.712	-0.064	-0.388	14937.3	17796.3	12078.3								
COc1cc2c(=O)c(-c3ccc(O)cc3)coc2cc1O[C@@H]1O[C@H](COC(C)=O)[C@@H](O)[C@H](O)[C@H]1O [6''-O-Acetylglycitin]	-0.368	-0.234	-0.301	16095.7	21928.1	10263.4								
CC1=CC(=O)c2c(O)cccc2C1=O [Plumbagin]	-2.104	-0.904	-1.504						2099.32	1092.19	3106.45			
Oc1ccc2[nH]ccc2c1 [5-Hydroxyindole]	-0.683	-0.549		12522.7			-0.616			18144.2	6901.21			
Nc1ccc(O)c(C(=O)O)c1 [5-Aminosalicylic Acid, reference compound]	-0.552	0.2					-0.176		17310.9	19721.7	14900.2			
Oc1ccc2c(c1)OC[C@]1(O)Cc3cc(O)c(O)cc3[C@H]21 [Brazilin]	-0.564	-0.743	-0.654	12203.7						19572.7	4834.73			
COc1cc(C)ccc1O [Creosol]	0.313	1.224					0.768		27969.9	30100.9	25838.9			
COc1cc(/C=C/C(=O)OCC[N+](C)(C)C)cc(OC)c1O [Sinapine]	-0.962	-0.305		12156.4			-0.633			14803.5	9509.32			−0.633
Isoliquiritin apioside	0.567	-0.451							20550.8	33153.4	7948.29	0.058		

Second part, led by results:

Z repl 1	Z Repl 2	av Z [1]	av puncta [2]	raw data 1 (raw puncta)	raw data 2 (raw puncta)	AvZ (average z score of seeding, SDs from the mean level of seeding)	av Z [3]	av puncta (average of raw data 1 and 2)	raw data 1 (puncta)	raw data 2 (puncta)	av Z [5]	Compound	av Z [4]	AvZ (average z score of seeding, SDs from the mean level of seeding) (listed as sinapine)
0.183	-0.668	-0.243	17088	28547.2	5628.78							COc1cc2ccc(=O)oc2c(O[C@@H]2O[C@H](CO)[C@@H](O)[C@H](O)[C@H]2O)c1O [Fraxin]		
0.5	0.017					0.258		22646.3	32350	12942.5		COc1ccc(O)cc1 [Mequinol]		
1.299	0.571							30407	41947.4	18866.6		COc1cc(/C=C/c2cc(O)cc(O)c2)ccc1O [Isorhapontigenin]	0.935	
0.06	-0.745	-0.343	15938.9	27063.9	4813.92							Oc1cc(O)cc(-c2cc3ccc(O)cc3o2)c1 [Moracin M]		
-0.297	-0.278	-0.288	16285.7	22779.3	9792.07							O=C(CCc1ccc(O)cc1)c1c(O)cc(O)cc1O[C@@H]1O[C@H](CO)[C@@H](O)[C@H](O)[C@H]1O [Phlorizin]		
-0.755	-0.316	-0.535	13342.4						17290	9394.79		O=c1oc2cc(O)ccc2c2cc(O)c(O)cc12 [Urolithin C]		
-0.172	-0.225	-0.198	17327.7	24288.2	10367.2							COc1ccc(CCC(=O)c2c(O)cc(O[C@@H]3O[C@H](CO)[C@@H](O)[C@H](O)[C@H]3O[C@@H]3O[C@@H](C)[C@H](O)[C@@H](O)[C@H]3O)cc2O)cc1O [Neohesperidin dihydrochalcone]		
-0.859	0.047	-0.406	14655.6	16039.6	13271.6							OC[C@H]1O[C@@H](Oc2cc(O)ccc2/C=C/c2cc(O)cc(O)c2)[C@H](O)[C@@H](O)[C@@H]1O [Oxyresveratrol 2-O-?-D-glucopyranoside]		
-1.302		-1.235						5506.01	10717.8	294.245		Oc1cc(O)cc(/C=C/c2ccc(O)c(O)c2)c1 [Piceatannol]		
-0.491	-0.104	-0.297	16057.3	20455.1	11659.4							O=c1c(O[C@@H]2OC[C@@H](O)[C@H](O)[C@H]2O)c(-c2ccc(O)c(O)c2)oc2cc(O)cc(O)c12 [Reynoutrin]		
-0.386	0.151							18050.7	21720.4	14381.1	-0.117	COc1cc(O)c2c(=O)c(O)c(-c3ccc(O)c(O)c3)oc2c1 [Rhamnetin]		
-0.182	0.275							19930.3	24161.4	15699.2	0.046	O=C(/C=C/c1ccc(O)c(O)c1)O[C@@H]1C[C@](O)(C(=O)O)C[C@@H](OC(=O)/C=C/c2ccc(O)c(O)c2)[C@H]1O [Isochlorogenic acid A]		
